SMILES strings stand for the structures. Counter-ions that a name gives are not always drawn.

T1 sequence (Q00975 whole entry): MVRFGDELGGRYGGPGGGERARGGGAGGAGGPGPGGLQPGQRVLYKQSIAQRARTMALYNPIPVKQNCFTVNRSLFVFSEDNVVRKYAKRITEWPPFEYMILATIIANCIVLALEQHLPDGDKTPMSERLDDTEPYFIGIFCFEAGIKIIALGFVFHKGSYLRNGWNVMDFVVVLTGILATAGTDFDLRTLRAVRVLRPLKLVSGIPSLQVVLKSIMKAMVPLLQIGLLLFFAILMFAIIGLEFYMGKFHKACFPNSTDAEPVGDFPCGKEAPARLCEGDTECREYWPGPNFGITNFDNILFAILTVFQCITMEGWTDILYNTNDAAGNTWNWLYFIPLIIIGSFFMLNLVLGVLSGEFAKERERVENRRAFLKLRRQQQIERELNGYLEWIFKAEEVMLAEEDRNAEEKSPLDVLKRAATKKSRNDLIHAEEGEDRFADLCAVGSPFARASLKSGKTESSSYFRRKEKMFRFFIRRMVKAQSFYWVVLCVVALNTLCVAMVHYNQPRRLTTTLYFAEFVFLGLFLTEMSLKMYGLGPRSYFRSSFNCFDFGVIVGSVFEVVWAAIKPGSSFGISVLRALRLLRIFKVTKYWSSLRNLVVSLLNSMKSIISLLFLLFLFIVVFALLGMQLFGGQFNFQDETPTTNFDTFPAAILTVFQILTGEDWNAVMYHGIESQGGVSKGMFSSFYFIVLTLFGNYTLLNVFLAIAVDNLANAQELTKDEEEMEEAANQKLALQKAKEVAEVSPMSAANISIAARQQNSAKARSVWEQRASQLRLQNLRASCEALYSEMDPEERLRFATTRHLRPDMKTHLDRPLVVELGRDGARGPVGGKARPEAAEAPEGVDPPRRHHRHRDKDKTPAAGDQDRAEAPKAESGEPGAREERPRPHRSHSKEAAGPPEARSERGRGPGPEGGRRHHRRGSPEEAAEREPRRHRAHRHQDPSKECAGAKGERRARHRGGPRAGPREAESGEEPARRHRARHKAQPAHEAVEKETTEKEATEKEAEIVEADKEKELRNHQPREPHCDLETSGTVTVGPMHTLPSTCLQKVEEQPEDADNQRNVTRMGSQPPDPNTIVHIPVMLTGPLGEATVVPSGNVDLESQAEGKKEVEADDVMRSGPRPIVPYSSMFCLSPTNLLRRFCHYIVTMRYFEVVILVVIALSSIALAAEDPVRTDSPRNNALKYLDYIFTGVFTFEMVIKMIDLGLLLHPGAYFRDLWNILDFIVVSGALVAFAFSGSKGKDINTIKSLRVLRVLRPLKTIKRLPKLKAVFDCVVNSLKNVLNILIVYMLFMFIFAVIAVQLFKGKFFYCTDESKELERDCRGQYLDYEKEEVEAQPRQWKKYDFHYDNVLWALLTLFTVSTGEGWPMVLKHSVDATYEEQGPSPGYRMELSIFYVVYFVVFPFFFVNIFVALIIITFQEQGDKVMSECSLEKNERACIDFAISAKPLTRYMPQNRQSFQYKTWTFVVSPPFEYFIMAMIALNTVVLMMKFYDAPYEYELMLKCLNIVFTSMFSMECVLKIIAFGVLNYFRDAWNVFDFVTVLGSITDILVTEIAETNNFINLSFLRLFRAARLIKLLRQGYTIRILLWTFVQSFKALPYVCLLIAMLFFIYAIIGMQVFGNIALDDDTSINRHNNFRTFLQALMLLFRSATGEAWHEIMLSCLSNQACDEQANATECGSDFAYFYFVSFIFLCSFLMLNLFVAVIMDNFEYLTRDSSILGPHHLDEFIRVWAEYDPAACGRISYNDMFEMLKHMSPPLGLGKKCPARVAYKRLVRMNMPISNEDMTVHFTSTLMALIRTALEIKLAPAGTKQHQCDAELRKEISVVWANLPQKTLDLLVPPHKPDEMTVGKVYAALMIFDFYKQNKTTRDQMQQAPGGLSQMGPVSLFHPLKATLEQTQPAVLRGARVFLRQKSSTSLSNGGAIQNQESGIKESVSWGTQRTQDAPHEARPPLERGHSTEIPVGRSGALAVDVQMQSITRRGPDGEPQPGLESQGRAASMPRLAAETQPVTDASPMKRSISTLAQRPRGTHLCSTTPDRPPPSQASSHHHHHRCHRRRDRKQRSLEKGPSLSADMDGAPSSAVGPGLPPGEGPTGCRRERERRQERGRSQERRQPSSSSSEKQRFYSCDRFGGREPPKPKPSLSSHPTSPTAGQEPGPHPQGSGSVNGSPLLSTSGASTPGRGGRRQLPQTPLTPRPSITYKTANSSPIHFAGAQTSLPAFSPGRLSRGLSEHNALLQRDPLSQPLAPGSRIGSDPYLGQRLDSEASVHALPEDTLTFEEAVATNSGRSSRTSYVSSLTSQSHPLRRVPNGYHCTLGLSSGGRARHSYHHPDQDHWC
T1 sequence (P54284 whole entry partner): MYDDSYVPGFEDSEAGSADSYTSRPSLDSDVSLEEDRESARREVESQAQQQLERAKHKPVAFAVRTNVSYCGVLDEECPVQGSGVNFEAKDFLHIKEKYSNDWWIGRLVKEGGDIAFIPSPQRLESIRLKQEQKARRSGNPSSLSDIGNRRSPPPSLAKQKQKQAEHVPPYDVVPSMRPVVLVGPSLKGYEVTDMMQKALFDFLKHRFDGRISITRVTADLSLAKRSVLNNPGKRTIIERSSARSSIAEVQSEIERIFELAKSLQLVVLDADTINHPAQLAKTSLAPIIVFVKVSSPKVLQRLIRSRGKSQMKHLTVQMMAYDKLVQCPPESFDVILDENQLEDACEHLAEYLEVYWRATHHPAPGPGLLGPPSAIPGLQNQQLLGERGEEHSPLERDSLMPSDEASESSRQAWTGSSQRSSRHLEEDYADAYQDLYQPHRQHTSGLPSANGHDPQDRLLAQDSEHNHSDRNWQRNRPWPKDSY
T1 sequence (P54289 25-946 partner limits assumed): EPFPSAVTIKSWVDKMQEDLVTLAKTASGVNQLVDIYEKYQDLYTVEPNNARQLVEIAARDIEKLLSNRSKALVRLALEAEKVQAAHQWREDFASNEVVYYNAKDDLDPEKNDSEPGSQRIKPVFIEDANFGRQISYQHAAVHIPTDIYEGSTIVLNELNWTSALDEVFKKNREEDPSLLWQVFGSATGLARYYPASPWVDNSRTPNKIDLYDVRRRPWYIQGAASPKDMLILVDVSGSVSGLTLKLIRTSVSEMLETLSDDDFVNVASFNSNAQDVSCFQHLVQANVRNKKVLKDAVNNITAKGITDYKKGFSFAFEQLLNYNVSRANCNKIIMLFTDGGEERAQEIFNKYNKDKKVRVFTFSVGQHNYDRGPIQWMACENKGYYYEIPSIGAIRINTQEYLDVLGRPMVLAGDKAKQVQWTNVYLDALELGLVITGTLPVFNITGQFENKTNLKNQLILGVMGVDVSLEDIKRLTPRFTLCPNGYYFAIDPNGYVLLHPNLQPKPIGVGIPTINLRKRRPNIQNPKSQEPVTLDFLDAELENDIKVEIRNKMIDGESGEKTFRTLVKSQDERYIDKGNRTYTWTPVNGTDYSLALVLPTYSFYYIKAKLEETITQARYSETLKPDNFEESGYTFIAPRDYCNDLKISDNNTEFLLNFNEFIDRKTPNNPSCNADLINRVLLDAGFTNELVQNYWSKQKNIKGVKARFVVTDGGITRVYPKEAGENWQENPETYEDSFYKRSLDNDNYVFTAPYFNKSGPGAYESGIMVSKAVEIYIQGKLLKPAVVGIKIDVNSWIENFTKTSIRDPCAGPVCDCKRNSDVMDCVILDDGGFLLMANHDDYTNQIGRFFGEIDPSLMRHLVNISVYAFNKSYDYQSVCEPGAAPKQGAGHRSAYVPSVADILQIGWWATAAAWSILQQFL
T1 sequence (P54289 947-1103 partner limits assumed): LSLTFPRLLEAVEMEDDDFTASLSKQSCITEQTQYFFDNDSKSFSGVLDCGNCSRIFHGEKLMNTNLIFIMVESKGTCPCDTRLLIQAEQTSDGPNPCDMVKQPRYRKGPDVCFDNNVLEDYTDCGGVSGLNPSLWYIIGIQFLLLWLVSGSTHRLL

This test concerns the target T1, human Cav2.2 α (α1B) subunit, along with the human β3 and α2δ1 auxiliary subunits (Homo sapiens, UniProt Q00975).
T1 construct: expressed in transfected cells
Kind of test: hCav2.2 assay, IonWorks planar array electrophysiology in stable HEK293 cell line. To be noted: inhibition by 50% of current elicited by the 1st depolarising pulse; HEK293 cells; read-out: tonic pIC50 (converted). The format is cell-based. The procedure:
Compounds as defined in the first or second aspect may be tested for in vitro biological activity in the hCav2.2 assay in accordance with the following studies:
Stable cell lines expressing the human Cav2.2 α (α1B) subunit, along with the human β3 and α2δ1 auxiliary subunits were created following sequential transfection and selection of human embryonic kidney (HEK293) cells. HEK293 cells were cultured in Dulbecco's modified Eagles media/F12 media (Invitrogen, Cat #041-95750V) containing 10% fetal bovine serum, with added L-glutamine (2 mM; Invitrogen, Cat #25030-024) and non-essential amino acids (5%; Invitrogen, Cat #11140-035). Initially HEK293 cells were transfected with two plasmid vectors for expression of the hCav2.2 α subunit (pCIN5-hCav2.2 which carries a neomycin resistance marker) and the hCav β3 subunit (pCIH-hCav β3 which carries a hygromycin resistance marker). Clonal cell lines were isolated following selection in media supplemented with 0.4 mg ml^−1 Geneticin G418 (Invitrogen, Cat #10131-027) and 0.1 mg ml^−1 hygromycin (Invitrogen, Cat #10687-010). These clonal cell lines were assessed for Cav2.2 α/β3-mediated current expression using the IonWorks planar array electrophysiology technology (described below). A clonal line was identified that gave a reasonable level of functional Cav2.2 α/β3 current expression. This cell line was transfected with a plasmid vector for expression of the human α2δ1 subunit (pCIP-α2δ1 which carries a puromycin resistance marker) and clonal cell lines isolated following selection in media containing 0.62 μg ml^−1 puromycin (Sigma, Cat #P-7255), in addition to 0.4 mg ml^−1 Geneticin G418 and 0.1 mg ml^−1 hygromycin. Several cell lines were identified that gave robust levels of Cav2.2 α/β3/α2δ1-mediated current expression and one of these was selected for compound profiling. Expression of all three subunits within this cell line was continuously maintained by the inclusion of G418 (0.4 mg ml^−1), hygromycin (0.1 mg ml^−1) and puromycin (0.62 μg ml^−1). Cells were maintained at 37° C. in a humidified environment containing 5% CO2 in air. Cells were liberated from the T175 culture flasks for passage and harvesting using TrpLE (Invitrogen, Cat #12604-013).
Cells were grown to 30-60% confluence in T175 flasks and maintained at 30° C. for 24 hrs prior to recording. Cells were lifted by removing the growth media, washing with Ca^2+ free PBS (Invitrogen, Cat #14190-094) and incubating with 3 ml of warmed (37° C.) TrpLE (Invitrogen, Cat #12604-013) for 6 minutes. Lifted cells were suspended in 10 ml of extracellular buffer. Cell suspension was then placed into a 15 ml tube and centrifuged for 2 minutes at 700 rpm. After centrifugation, the supernatant was removed and the cell pellet was resuspended in 4.5 ml of extracellular solution.
Currents were recorded at room temperature (21-23° C.) using the IonWorks planar array electrophysiology technology (Molecular Devices Corp.). Stimulation protocols and data acquisition were carried out using a microcomputer (Dell Pentium 4). In order to determine planar electrode hole resistances (Rp), a 10 mV, 160 ms potential difference was applied across each hole. These measurements were performed before cell addition. After cell addition a seal test was performed prior to antibiotic (amphotericin) circulation to achieve intracellular access. Leak subtraction was conducted in all experiments by applying a 160 ms hyperpolarizing (10 mV) prepulse 200 ms before the test pulses to measure leak conductance. Test pulses stepping from the holding potential (VH) of −90 mV to +10 mV were applied for 20 ms and repeated 10 times at a frequency of 10 Hz. In all experiments, the test pulse protocol was performed in the absence (pre-read) and presence (post-read) of a compound. Pre- and post-reads were separated by a compound addition followed by a 3-3.5 min incubation. […]
On the technique in general: In patch-clamp work, channel activity is measured electrically.
On to `C[C@@H]1CN(Cc2nnnn2-c2ccc(Cl)cc2)C[C@H](C)O1` [Compound 13, (cis)-4-{[1-(4-Chlorophenyl)-1H-tetrazol-5-yl]methyl}-2,6-dimethylmorpholine], for which the IC50 was at most 31.6 µM.

Take `CC(C)N1CCN(Cc2nnnn2-c2ccc(C(F)(F)F)cc2)CC1` [Compound 96, 1-(1-Methylethyl)-4-({1-[4-(trifluoromethyl)phenyl]-1H-tetrazol-5-yl}methyl)piperazine hydrochloride]: the IC50 was at most 31.6 µM.

Take `FC(F)(F)c1cccc(-n2nnnc2CN2CCOCC2)c1` [Compound 19, 4-({1-[3-(Trifluoromethyl)phenyl]-1H-tetrazol-5-yl}methyl)morpholine]: the IC50 was at most 31.6 µM.

Regarding `CS(=O)(=O)N1CCN(Cc2nnnn2-c2cccc(C(F)(F)F)c2)CC1` [Compound 72, 1-(Methylsulfonyl)-4-({1-[3-(trifluoromethyl)phenyl]-1H-tetrazol-5-yl}methyl)piperazine], the IC50 was at most 10 µM.

On to `C[C@@H]1CN(Cc2nnnn2-c2ccc(C#N)c(C(F)(F)F)c2)C[C@H](C)O1` [Compound 30, 4-(5-{[cis-2,6-Dimethyl-4-morpholinyl]methyl}-1 H-tetrazol-1-yl)-2-(trifluoromethyl)benzonitrile], for which the IC50 was at most 10 µM.

For `C[C@@H]1CN(S(C)(=O)=O)C[C@H](C)N1Cc1nnnn1-c1ccc(C#N)c(C(F)(F)F)c1` [Compound 107, 4-(5-{[cis-2,6-Dimethyl-4-(methylsulfonyl)-1-piperazinyl]methyl}-1H-tetrazol-1-yl)-2-(trifluoromethyl)benzonitrile], the IC50 was at most 3.16 µM.

`CS(=O)(=O)N1CCN(Cc2nnnn2-c2ccc(C(F)(F)F)cc2)CC1` [Compound 71, 1-(Methylsulfonyl)-4-({1-[4-(trifluoromethyl)phenyl]-1H-tetrazol-5-yl}methyl)piperazine]: the IC50 is at most 3.16 µM.

In the case of `FCC12CCCN1CCN(Cc1nnnn1-c1ccc(C(F)(F)F)cc1)C2` (centres unmarked) [Compound 77, 8a-(Fluoromethyl)-2-({1-[4-(trifluoromethyl)phenyl]-1H-tetrazol-5-yl}methyl)octahydropyrrolo[1,2-a]pyrazine], the IC50 was at most 31.6 µM.

`CC1(C)COCCN1Cc1nnnn1-c1cccc(C(F)(F)F)c1` [Compound 29, 3,3-Dimethyl-4-({1-[3-(trifluoromethyl)phenyl]-1H-tetrazol-5-yl}methyl)morpholine]: the IC50 was at most 10 µM.

For the compound `N#Cc1ccc(-n2nnnc2CN2[C@@H]3CC[C@H]2COC3)cc1C(F)(F)F` [Compound 103, 4-[5-(3-oxa-8-azabicyclo[3.2.1]oct-8-ylmethyl)-1H-tetrazol-1-yl]-2-(trifluoromethyl)benzonitrile hydrochloride], the IC50 was at most 10 µM.

For `CCCS(=O)(=O)N1CCN(Cc2nnnn2-c2ccc(Cl)cc2)CC1` [Compound 23, 1-{[1-(4-Chlorophenyl)-1H-tetrazol-5-yl]methyl}-4-(propylsulfonyl)piperazine], the IC50 was at most 31.6 µM.

With `CC(=O)N1CCN(Cc2nnnn2-c2ccc(C#N)c(C(F)(F)F)c2)CC1` [Compound 102, 4-{5-[(4-acetyl-1-piperazinyl)methyl]-1H-tetrazol-1-yl}-2-(trifluoromethyl)benzonitrile], the IC50 was at most 3.16 µM.

As to `C[C@@H]1COCCN1Cc1nnnn1-c1ccc(OC(F)F)cc1` [Compound 54, (3R)-4-[(1-{4-[(Difluoromethyl)oxy]phenyl}-1H-tetrazol-5-yl)methyl]-3-methylmorpholine hydrochloride], the IC50 was at most 31.6 µM.

As to `O=C1CCC2CN(Cc3nnnn3-c3ccc(C(F)(F)F)cc3)CCN12` (centres unmarked) [Compound 74, 2-({1-[4-(Trifluoromethyl)phenyl]-1H-tetrazol-5-yl}methyl)hexahydropyrrolo[1,2-a]pyrazin-6(2H)-one], the IC50 is at most 10 µM.

Take `C[C@@H]1COCCN1Cc1nnnn1-c1ccc(C(F)(F)F)cn1` [Compound 42, (3R)-3-Methyl-4-({1-[5-(trifluoromethyl)-2-pyridinyl]-1H-tetrazol-5-yl}methyl)morpholine]: the IC50 was at most 31.6 µM.

For `O=S1(=O)CCC2CN(Cc3nnnn3-c3ccc(C(F)(F)F)cc3)CCN21` (centres unmarked) [Compound 78, 5-({1-[4-(Trifluoromethyl)phenyl]-1H-tetrazol-5-yl}methyl)hexahydro-2H-isothiazole[2,3-a]pyrazine 1,1-dioxide], the IC50 was at most 31.6 µM.

Regarding `CCN1CCN(Cc2nnnn2-c2cccc(C(F)(F)F)c2)[C@H](C)C1` [Compound 92, (2R)-4-Ethyl-2-methyl,-1-({1-[3-(trifluoromethyl)phenyl]-1H-tetrazol-5-yl}methyl)piperazine hydrochloride], the IC50 is at most 31.6 µM.

For `FC(F)(F)c1ccc(-n2nnnc2CCN2CCOCC2)cc1` [Compound 9, 4-(2-{1-[4-(Trifluoromethyl)phenyl]-1H-tetrazol-5-yl}ethyl)morpholine hydrochloride], the IC50 is at most 31.6 µM.

In the case of `C[C@@H]1COC[C@H](C)N1Cc1nnnn1-c1cccc(C(F)(F)F)c1` [Compound 64, (cis)-3,5-dimethyl-4-({1-[3-(Trifluoromethyl)phenyl]-1H-tetrazol-5-yl}methyl)morpholine hydrochloride], the IC50 was at most 31.6 µM.

Turning to `C[C@@H]1COCCN1Cc1nnnn1-c1ccc(C(F)(F)F)cc1` [Compound 28, (3R)-3-Methyl-4-({1-[4-(trifluoromethyl)phenyl]-1H-tetrazol-5-yl}methyl)morpholine hydrochloride], the IC50 was at most 3.16 µM.

For `CCC(=O)N1CCN(Cc2nnnn2-c2ccc(C#N)c(C(F)(F)F)c2)CC1` [Compound 145, 4-{5-[(4-propanoyl-1-piperazinyl)methyl]-1H-tetrazol-1-yl}-2-(trifluoromethyl)benzonitrile], the IC50 was at most 3.16 µM.

For the compound `CCS(=O)(=O)N1CCN(Cc2nnnn2-c2cccc(C(F)(F)F)c2)CC1` [Compound 48, 1-(Ethylsulfonyl)-4-({1-[3-(trifluoromethyl)phenyl]-1H-tetrazol-5-yl}methyl)piperazine], the IC50 was at most 3.16 µM.

Regarding `Clc1ccc(-n2nnnc2CN2CCOCC2)cc1Cl` [Compound 21, 4-{[1-(3,4-Dichlorophenyl)-1H-tetrazol-5-yl]methyl}morpholine], the IC50 was at most 10 µM.

For `CCN1CCN(Cc2nnnn2-c2ccc(C(F)(F)F)cc2)[C@H](C)C1=O` [Compound 52, (3R)-1-Ethyl-3-methyl-4-({1-[4-(trifluoromethyl)phenyl]-1H-tetrazol-5-yl}methyl)-2-piperazinone], the IC50 is at most 31.6 µM.

Regarding `C[C@H]1COCCN1Cc1nnnn1-c1ccc(C(F)(F)F)cc1` [Compound 39, (3S)-3-Methyl-4-({1-[4-(trifluoromethyl)phenyl]-1H-tetrazol-5-yl}methyl)morpholine hydrochloride], the IC50 is at most 10 µM.

On to `C[C@@H]1C(=O)N(C)CCN1Cc1nnnn1-c1ccc(C(F)(F)F)cc1` [Compound 89, (3R)-1,3-Dimethyl-4-({1-[4-(trifluoromethyl)phenyl]-1H-tetrazol-5-yl}methyl)-2-piperazinone[]], for which the IC50 is at most 10 µM.

The record behind these values is patent US9750719B2, “Tetrazole compounds as calcium channel blockers” (CONVERGENCE PHARMACEUTICALS LIMITED, priority 2010, dated 2017).
